Data taken from patent US20060281700A1, “SYNERGISTIC MODULATION OF FLT3 KINASE USING AMINOPYRIMIDINES KINASE MODULATORS” (priority 2005, published 2006).

Tests used:
[1] = tested on: Baf3-FLT3 cells stimulated with 100 ng/ml FLT ligand; test: Cell proliferation assay, single agents and FTI/FLT3 inhibitor combinations, Baf3-FLT3; type: cell-based, murine
Description: (§1) The cell lines that were tested included those that are dependent on FLT3ITD mutant activity for growth (MV4-11 and Baf3-FLT3ITD), FLT3 wt activity for growth (Baf3FLT3) and those that grow independent of FLT3 activity (THP-1). […] Baf3-FLT3 and Baf3-FLT3ITD cell lines were obtained from Dr. Michael Henrich and the Oregon Health Sciences University. The Baf3 FLT3 cell lines were created by stable transfection of parental Baf3 cells (a murine B cell lymphoma line dependent on the cytokine IL-3 for growth) with either wild-type FLT3 or FLT3 containing the ITD insertion in the juxatamembrane domain of the receptor resulting in its constitutive activation. Cells were selected for their ability to grow in the absence of IL-3 and in either the presence of FLT3 ligand (Baf3-FLT3) or independent of any growth factor (Baf3-ITD). […]
(§2) Dose responses for the individual compounds alone were determined for each cell line using a standard 72-hour cell proliferation assay (see FIGS. 6.1-6.8). […]
(§3) To statistically evaluate the synergy of a FLT3 inhibitor and an FTI in FLT3 dependent cell lines, dosing combinations were evaluated by the method of Chou and Talalay. See Chou T C, Talalay P. (1984) “Quantitative analysis of dose-effect relationships: the combined effects of multiple drugs or enzyme inhibitors.” Adv Enzyme Regul. […] Using this method, multiple FTI and FLT3 combinations were evaluated. […]

Baf3-ITD cells = test: Cell proliferation assay, single agents and FTI/FLT3 inhibitor combinations, Baf3-ITD; type: cell-based, murine
Description: as §1, §2, §3

## Cn1cncc1C(N)(c1ccc(Cl)cc1)c1ccc2c(c1)c(-c1cccc(Cl)c1)cc(=O)n2C (single isomer, unassigned; (+)) [Tipifarnib, (+)-6-[amino(4-chlorophenyl)(1-methyl-1H-imidazol-5-yl)methyl]-4-(3-chlorophenyl)-1-methyl-2(1H)-quinolinone]
[1]; Baf3-FLT3, Compound A 100 nM
  increase in potency of Tipifarnib with a single sub-IC50 dose of FLT3 inhibitor Compound A: more than 3 fold
[1]; Mus musculus, Baf3-FLT3 proliferation, FTI alone or in the combination named
  IC50: 0.00185 µM
Baf3-ITD cells; Baf3-ITD, Compound A 50 nM
  increase in potency of Tipifarnib with a single sub-IC50 dose of FLT3 inhibitor Compound A: more than 3 fold
Baf3-ITD cells; Mus musculus, Baf3-ITD proliferation, FTI alone or in the combination named
  IC50: 0.548 µM
